Two compounds from publication PMC12134304, “Exploring novel of 1,2,4-triazolo[4,3-a]quinoxaline sulfonamide regioisomers as anti-diabetic and anti-Alzheimer agents with in-silico molecular docking simulation” (Scientific Reports, 2025) can be followed below.

Assay type in all cases: biochemical
One experiment deals with α-amylase. As to the kind of experiment: in vitro enzyme inhibition assay (Wickramaratne method). As to conditions: read-out: The in vitro median inhibitory concentrations (IC50 ± SE) (μM) / Anti-diabetic activity ^a / α-amylase.
The next experiment has as its target α-glucosidase. Put plainly: in vitro enzyme inhibition assay (Pistia-Brueggeman method). As to conditions: read-out: The in vitro median inhibitory concentrations (IC50 ± SE) (μM) / Anti-diabetic activity ^a / α-glucosidase.
Experiment [1] concerns the target acetylcholinesterase (AChE) (Homo sapiens, UniProt P22303). Put plainly: Ellman's method, single-concentration percent inhibition.

Sequence of acetylcholinesterase (AChE) (P22303 32-614): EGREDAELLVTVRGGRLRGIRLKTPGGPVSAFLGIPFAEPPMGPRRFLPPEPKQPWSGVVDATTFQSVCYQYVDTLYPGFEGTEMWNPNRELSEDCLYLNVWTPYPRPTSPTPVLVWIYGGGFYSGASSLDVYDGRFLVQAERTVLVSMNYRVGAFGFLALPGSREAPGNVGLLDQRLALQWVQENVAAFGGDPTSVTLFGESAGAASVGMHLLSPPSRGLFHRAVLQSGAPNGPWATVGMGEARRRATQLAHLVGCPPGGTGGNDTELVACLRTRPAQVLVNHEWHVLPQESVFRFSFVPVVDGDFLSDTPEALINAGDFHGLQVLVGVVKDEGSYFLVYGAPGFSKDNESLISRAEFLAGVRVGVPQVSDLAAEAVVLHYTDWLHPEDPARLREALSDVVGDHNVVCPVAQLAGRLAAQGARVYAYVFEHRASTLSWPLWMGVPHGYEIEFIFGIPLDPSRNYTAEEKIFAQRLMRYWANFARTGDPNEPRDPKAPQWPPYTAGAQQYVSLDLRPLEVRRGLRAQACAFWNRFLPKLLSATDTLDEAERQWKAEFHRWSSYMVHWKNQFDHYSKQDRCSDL

Turning to `C=CCNc1nnc2c(N3CCCC3)nc3ccc(S(=O)(=O)N4CCCC4)cc3n12` [10a, N-Allyl-4-(pyrrolidin-1-yl)-8-(pyrrolidin-1-ylsulfonyl)-[1,2,4]triazolo[4,3-a]quinoxalin-1-amine], the values for the IC50 on α-amylase and on α-glucosidase were 6.89 ± 0.09 µM and 3.46 ± 0.06 µM, respectively.

Turning to `Cc1nnc2c(N3CCCC3)nc3cc(S(=O)(=O)N4CCCC4)ccc3n12` [11b, 1-Methyl-4-(pyrrolidin-1-yl)-7-(pyrrolidin-1-ylsulfonyl)-[1,2,4]triazolo[4,3-a]quinoxaline], the “The in vitro inhibitory percentage (IP ± SE) of the designed two isomers sulfonamide quinoxaline derivatives at 100 μM / Anti-Alzheimer activity ^a / AChE” value in experiment [1] turned out to be 44.78 ± 0.01.
